This passage reports glass transition temperature results from the PolyMetriX glass transition set.

Compound `*C(=O)c1ccc2c(c1)C(=O)N(c1ccc(Oc3ccc(C(=O)c4ccc(Oc5ccc(C(=O)c6ccc(Oc7ccc(N8C(=O)c9ccc(*)cc9C8=O)cc7)cc6)cc5)cc4)cc3)cc1)C2=O` (repeat unit) gave a glass transition temperature of 215.00 °C. For `*C(=O)c1ccc2c(c1)C(=O)N(c1ccc(Oc3ccc(C(=O)c4ccc(Oc5ccc(N6C(=O)c7ccc(*)cc7C6=O)cc5)cc4)cc3)cc1)C2=O` (repeat unit) the value was 252.00 °C; for `*CCCCCCCCCCCN1C(=O)c2ccc(C(=O)Oc3ccc(-c4ccc(OC(=O)c5ccc6c(c5)C(=O)N(*)C6=O)cc4)cc3)cc2C1=O` (repeat unit), 97.00 °C.

`*OP(=O)(Oc1c(Cl)cc(Cl)cc1Cl)Oc1c(Cl)c(Cl)c(*)c(Cl)c1Cl` (repeat unit) displayed a glass transition temperature of 127.00 °C. For the compound `*OP(=O)(Oc1c(Cl)cccc1Cl)Oc1c(Cl)c(Cl)c(*)c(Cl)c1Cl` (repeat unit), the glass transition temperature was 144.00 °C. Consider `*OP(=O)(Oc1ccc(C)cc1)Oc1c(Br)cc(C(c2cc(Br)c(*)c(Br)c2)(C(F)(F)F)C(F)(F)F)cc1Br` (repeat unit), for which the glass transition temperature stood at 146.00 °C. On to `*OP(=O)(Oc1ccc(OC)cc1)Oc1c(C)cc(S(=O)(=O)c2cc(C)c(*)c(C)c2)cc1C` (repeat unit), for which the glass transition temperature is 147.00 °C.

As for `*OP(=O)(Oc1ccccc1)Oc1ccc(-c2ccc(*)cc2)cc1` (repeat unit), the glass transition temperature stood at 112.00 °C. `*O[Si](*)(C)CCCCCCOc1ccc(C(=O)Oc2ccc(C(=O)Oc3ccc(C=C(C(=O)OCCCCCCCCC)C(=O)OCCCCCCCCC)cc3)cc2)cc1` (repeat unit) returned a glass transition temperature of -5.00 °C. For `*O[Si](*)(C)CCCCCCOc1ccc(C(=O)Oc2ccc(OCCCCCC)cc2)cc1` (repeat unit) the value was 12.00 °C; for `*O[Si](*)(C)CCCCOc1ccc(C(=O)Oc2ccc(C#N)cc2)cc1` (repeat unit), 16.00 °C; for `*O[Si](*)(C)CCCOCC1COC(=O)O1` (repeat unit), -25.90 °C.

In turn, `*O[Si](*)(C)CCCOc1ccc(-c2ccc(C#N)cc2)cc1` (repeat unit) showed a glass transition temperature of 38.00 °C. For `*O[Si](*)(C)CCCOc1ccc(-c2ccc(OC(=O)CCCCC(=O)OC3CC(C)CCC3C(C)C)cc2)cc1` (repeat unit) the value was 43.30 °C. Consider `*O[Si](*)(C)CCCOc1ccc(C(=O)Oc2ccc(-c3ccc(OC(=O)c4cc(OCC(C)CC)c(OCC(C)CC)c(OCC(C)CC)c4)cc3)cc2)cc1` (repeat unit), for which the glass transition temperature turned out to be 60.00 °C. For `*O[Si](*)(C)CCCOc1ccc(C(=O)Oc2ccc(-c3ccc(OC(=O)c4cc(OCC)c(OCC)c(OCC)c4)cc3)cc2)cc1` (repeat unit) the value was 61.30 °C; for `*O[Si](*)(C)CCCOc1ccc(C(=O)Oc2ccc(-c3ccc(OC(=O)c4cc(OCC)cc(OCC)c4)cc3)cc2)cc1` (repeat unit), 62.80 °C.

In turn, `*O[Si](*)(C)CCCOc1ccc(C(=O)Oc2ccc(-c3ccc(OC(=O)c4cc(OCCCCC)c(OCCCCC)c(OCCCCC)c4)cc3)cc2)cc1` (repeat unit) displayed a glass transition temperature of 49.00 °C.

`*O[Si](*)(C)CCCOc1ccc(C(=O)Oc2ccc(C#N)cc2)cc1` (repeat unit): the glass transition temperature was 57.00 °C. For `*O[Si](*)(C)CCCOc1ccc(C(=O)Oc2ccc(C(=O)Oc3ccc(OC)cc3)cc2)cc1` (repeat unit) the value was 38.00 °C. To `*O[Si](*)(C)CCCOc1ccc(C(=O)Oc2ccc(OC)cc2)cc1` (repeat unit) belongs 37.00 °C. For `*O[Si](*)(C)CCCOc1ccc(C(=O)Oc2ccc(OCCCCCC)cc2)cc1` (repeat unit) the value was 15.00 °C; for `*O[Si](*)(C)CCCOc1ccc2c(c1)c1cc(-c3ccc4c(c3)c3ccccc3n4CC(CC)CCCC)ccc1n2CC(CC)CCCC` (repeat unit), 129.00 °C.

Turning to `*O[Si](*)(C)CC[Si](C)(C)O[Si](C)(C)CCCOc1cc(OC(=O)c2ccc(OCCCC)cc2)ccc1/N=N/c1ccc(OCCCC)cc1` (repeat unit), the glass transition temperature is -4.00 °C.

As to `*O[Si](*)(C)CC[Si](OCCOC)(OCCOC)OCCOC` (repeat unit), the glass transition temperature stood at 28.90 °C. To `*O[Si](*)(C)CCc1cc(C(=O)Oc2ccc(OC)cc2)ccc1C(=O)Oc1ccc(OC)cc1` (repeat unit) belongs 111.00 °C. For `*O[Si](*)(C)CCc1ccc(O)cc1` (repeat unit) the value was 39.00 °C. Compound `*O[Si](*)(CCCOCCOCCOCCOC)CCCOCCOCCOCCOC` (repeat unit) showed a glass transition temperature of -69.20 °C. Compound `*O[Si](*)(CCCOCCOCCOCCOCCOCCOCCOCCOC)CCCOCCOCCOCCOCCOCCOCCOCCOC` (repeat unit) gave a glass transition temperature of -66.40 °C. In turn, `*O[Si](c1ccccc1)(c1ccccc1)c1ccc(-c2ccc([Si](*)(c3ccccc3)c3ccccc3)cc2)cc1` (repeat unit) came in with a glass transition temperature of 94.00 °C.

In turn, `*O[Si](c1ccccc1)(c1ccccc1)c1ccc([Si](*)(c2ccccc2)c2ccccc2)cc1` (repeat unit) registered a glass transition temperature of 130.00 °C. For `*Oc1c(-c2ccccc2)cc(*)cc1-c1ccccc1` (repeat unit) the value was 220.00 °C. For `*Oc1c(C)cc(*)cc1-c1ccccc1` (repeat unit) the value was 180.00 °C; for `*Oc1c(Cl)cc(*)cc1Cl` (repeat unit), 176.82 °C. To `*Oc1c(Cl)cc(C(c2cc(Cl)c(OC(*)=O)c(Cl)c2)C2CC3CCC2C3)cc1Cl` (repeat unit) belongs 270.00 °C. Regarding `*Oc1c(Cl)cc(C2(c3cc(Cl)c(OC(*)=O)c(Cl)c3)CCCCC2)cc1Cl` (repeat unit), the glass transition temperature came out at 163.00 °C. To `*Oc1cc2ccccc2cc1OC(=O)c1ccc(Oc2ccc(C(*)=O)cc2)cc1` (repeat unit) belongs 148.00 °C; to `*Oc1ccc(-c2ccc(OC(=O)c3ccc(C(=O)c4ccc(C(*)=O)cc4)cc3)c(-c3ccccc3)c2)cc1-c1ccccc1` (repeat unit), 184.50 °C; to `*Oc1ccc(-c2ccc(OC3(F)C(*)(F)C(F)(F)C3(F)F)cc2)cc1` (repeat unit), 161.00 °C. For `*Oc1ccc(-c2ccc(Oc3c(F)c(F)c(COC(c4cccc(C(OCc5c(F)c(F)c(*)c(F)c5F)(C(F)(F)F)C(F)(F)F)c4)(C(F)(F)F)C(F)(F)F)c(F)c3F)cc2)cc1` (repeat unit) the value was 110.00 °C. For `*Oc1ccc(C(=O)c2ccc(Oc3ccc(C4(c5ccc(*)cc5)c5ccccc5-c5ccccc54)cc3)cc2)c2ccccc12` (repeat unit) the value was 260.00 °C; for `*Oc1ccc(C2(c3ccc(Oc4ccc(C(=O)c5ccc(*)cc5)cc4)cc3)CCC3CCCCC3C2)cc1` (repeat unit), 214.00 °C. `*Oc1ccc(Oc2ccc(C(=O)c3ccc(*)cc3)cc2)cc1-c1cc(C(F)(F)F)cc(C(F)(F)F)c1` (repeat unit) returned a glass transition temperature of 146.00 °C. Take `*Oc1ccc(Oc2ccc(Oc3ccc(C(=O)c4ccc(*)cc4)cc3)cc2)cc1` (repeat unit): the glass transition temperature worked out at 150.50 °C. To `*Oc1ccc(Oc2ccc(Oc3cccc(C(=O)Oc4ccc(-c5ccc(OC(=O)c6cccc(*)c6)cc5)cc4)c3)cc2)cc1` (repeat unit) belongs 119.00 °C; to `*Oc1ccc(S(=O)(=O)c2ccc(Oc3ccc(-c4ccc(*)cc4)cc3)cc2N)c(N)c1` (repeat unit), 242.20 °C.

The compound `*c1cc(Br)c(OC(=O)c2ccc(C(=O)Oc3c(Br)cc(C4(*)OC(=O)c5ccccc54)cc3Br)cc2)c(Br)c1` (repeat unit) displayed a glass transition temperature of 319.00 °C.

Compound `*c1ccc(-c2ccc(-c3ccc4nc(Oc5cc(-c6ccccc6)c6cc(*)ccc6n5)cc(-c5ccccc5)c4c3)cc2)cc1` (repeat unit) came in with a glass transition temperature of 308.00 °C. To `*c1ccc(-c2ccc3nc(Oc4cc(-c5ccccc5)c5cc(*)ccc5n4)cc(-c4ccccc4)c3c2)cc1` (repeat unit) belongs 300.00 °C.

Turning to `*c1ccc(Oc2ccc(-c3ccc(Oc4ccc(N5C(=O)c6ccc(Oc7cc8ccccc8cc7Oc7ccc8c(c7)C(=O)N(*)C8=O)cc6C5=O)cc4)cc3)cc2)cc1` (repeat unit), the glass transition temperature is 222.50 °C. The compound `*c1ccc(Oc2ccc(C(=O)c3ccc(Oc4ccc(N5C(=O)c6ccc(-c7ccc8c(c7)C(=O)N(*)C8=O)cc6C5=O)cc4)cc3)cc2)cc1` (repeat unit) gave a glass transition temperature of 253.00 °C.

The compound `*c1ccc(Oc2ccc(C(=O)c3ccc(Oc4ccc(N5C(=O)c6ccc(Oc7ccc8c(c7)C(=O)N(*)C8=O)cc6C5=O)cc4)cc3)cc2)cc1` (repeat unit) gave a glass transition temperature of 243.00 °C.

`*c1ccc(Oc2ccc(C(=O)c3ccc(Oc4ccc(N5C(=O)c6ccc(Oc7cccc(Oc8ccc9c(c8)C(=O)N(*)C9=O)c7)cc6C5=O)cc4)cc3)cc2)cc1` (repeat unit) yielded a glass transition temperature of 201.00 °C. To `*c1ccc(Oc2ccc(N3C(=O)c4ccc(Oc5ccc(-c6ccc(Oc7ccc8c(c7)C(=O)N(*)C8=O)cc6)cc5)cc4C3=O)cc2)cc1` (repeat unit) belongs 229.00 °C; to `*c1ccc(Oc2ccc(Oc3ccc(-c4cnc5cc(-c6ccc7nc(*)cnc7c6)ccc5n4)cc3)cc2)cc1` (repeat unit), 195.00 °C; to `*c1ccc(Oc2cccc(Oc3ccc(N4C(=O)c5ccc(Oc6cc7ccccc7cc6Oc6ccc7c(c6)C(=O)N(*)C7=O)cc5C4=O)cc3)c2)cc1` (repeat unit), 208.00 °C. For `*c1ccc(Oc2ccccc2Oc2ccc(N3C(=O)c4ccc(Oc5cc6ccccc6cc5Oc5ccc6c(c5)C(=O)N(*)C6=O)cc4C3=O)cc2)cc1` (repeat unit) the value was 204.00 °C; for `*c1cccc(N2C(=O)c3cccc(Oc4ccc(-c5ccc(Oc6cccc7c6C(=O)N(*)C7=O)cc5)cc4)c3C2=O)c1` (repeat unit), 275.00 °C.
